The values below are quoted from earlier work in patent publication US12622943B2, “Composition for relieving woman menopausal symptom comprising a mixed extract of hop and citrus peel and method for treating or alleviating menopausal symptom using the same” (LG HOUSEHOLD & HEALTH CARE LTD., priority 2022, dated 2026).

In this data set the test system is uterine weight. Conditions: administered to animals at high doses.

Regarding `CC(C)=CCc1c(O)cc(O)c2c1O[C@H](c1ccc(O)cc1)CC2=O` [8-Prenylnaringenin], the uterine weight entry is recorded as “increased”.
